Key:
human recombinant t-PA = human recombinant t-PA (Homo sapiens, UniProt P00750); experiment: Catalytic activity of t-PA (initial rate method, spectrophotometer); assay type: biochemical
Method: All experiments were performed as follows: Fifty (50) μL of human recombinant t-PA was incubated with 50 μL of its substrate: methylsulfonyl-D-phenyl-glycil-arginine-7-amino-4-methylcoumarin acetate. For plasmin, twenty five (25) μL of human recombinant plasmin was incubated with 25 μL of its substrate: H-D-norleucyl-hexahydrotyrosol-lysine-para-nitroanilide diacetate. The kinetics of the catalytic activity of t-PA or plasmin was immediately measured using a spectrophotometer, and then estimated using the initial rate method. Solutions of t-PA or plasmin and their substrates were saturated with air (control), or with nitrous oxide, argon, xenon, or helium at concentrations of 15 vol % to 75 vol %, the remainder being oxygen at 25 vol %, completed with nitrogen when necessary.
For all gas mixtures in FIG. 1, the remainder is 25 vol % oxygen completed with nitrogen if necessary.
(§1) The effects of oxygen on the catalytic activity and thrombolytic properties of t-PA were also evaluated in vitro and in vivo according to the methods described above.

t-PA-induced clot lysis = experiment: In vitro t-PA-induced clot lysis of rat blood clots; assay type: biochemical; conditions: for effect on t-PA-induced clot lysis: t-PA 0.008 mg/mL
Method: In vitro experiments (FIG. 2) were performed using Male adult Sprague-Dawley rats (500±50 g). The rats were killed by decapitation. A volume of 500 μL of rat blood was transferred in different pre-weighed sterile Eppenforf™ tubes of 1.5 mL volume and incubated at 37° C. for 15 hours.
After clot formation, serum was completely removed, aspired out without disturbing the clot formed, and each tube was again weighed to determine the clot weight (clot weight=weight of tube containing clot−weight of tube alone). Each tube containing clot was properly labeled and filled with 1 mL of a saline solution containing 0.008 mg/mL of t-PA, saturated beforehand with medical air (control), nitrous oxide, xenon, argon or a mixture of nitrous oxide and argon. Some tubes were filled with saline alone saturated with medical air to serve as a negative control. All tubes were then incubated at 37° C. for 1 h 30 min. After incubation, the fluid obtained was removed and tubes were again weighed to observe the difference in weight after clot disruption. Difference obtained in weight taken before and after clot lysis was expressed as a percentage of clot lysis.
as §1

[1] = test system: middle cerebral artery occlusion using an autologous blood clot; experiment: In vivo thrombolysis/reperfusion after embolic middle cerebral artery occlusion using an autologous blood clot; parameters: species or system rat
Method: In vivo experiments (FIG. 3) were performed in Male adult Sprague-Dawley rats (290±40 g). The animals had free access to food and water in an animal room at constant temperature and humidity. Rats monitored for their physiological functions were anesthesized, and subjected to cerebral ischemia by occlusion of the middle cerebral artery using an autologus blood clot obtained from whole blood withdrawn from the rat 24 h prior surgery, allowed to clot at 37° C. for 2 h, and then and stored at 4° C. for 22 h.
Embolic occlusion of the middle cerebral artery was induced using an autologous blood clot. Briefly, a blood clot of 4 cm long was injected with a volume of […] of saline into the middle cerebral artery. Forty-five minutes after occlusion of the middle cerebral artery, the rats were given t-PA intravenously (0.9 mg/kg; 10% bolus, 90% perfusion during 45 minutes) in order to induce thrombolysis. Five minutes before the bolus injection and all along the perfusion period with t-PA, the rats were treated with medical air (controls) or xenon. Then, the catheter was removed, and all the incisions closed. After the experiment, the rats were allowed moving freely in their home cage with free access to food and water.
as §1

[2] = test system: NMDA-induced neuronal death; experiment: NMDA-induced neuronal death after intracerebral injection, with or without t-PA; assay type: in vivo, rat
Method: Experiments were conducted in Male adult Sprague-Dawley rats. The rats were given, under short halothane-oxygen anesthesia of 10 min duration, an intracerebral injection of 50 nmol NMDA, alone or in combination with 3 mg t-PA, in […] saline solution.
One hour later, the rats were treated for a 3 h period in an environmental chamber saturated with nitrous oxide at 50 vol % with the remainder being oxygen at 25 vol % completed with nitrogen.
Forty-eight (48) hours after NMDA injection, rats were killed by decapitation under halothane-oxygen anesthesia. The brain was rapidly removed, frozen in isopentane, placed at −80° C. Coronal brain sections (20 μm) were then cryostat-cut, mounted on gelatinized slides, and stained with thionin. Brain sections colored with thionin were then digitized on a PC computer, and analyzed with an image analyzer (ImageJ® software, Scion corp., USA) by two blinded scientists. Values were averaged; value differences were no more than 10% (mean: 0.5±1%). The lesion areas were delineated by the pallor of histological staining in the necrotic tissue compared with the surrounding healthy tissue. The infarction volume was calculated by integration over the whole brain of the infarcted surfaces, using the sterotaxic atlas for the rat brain of Paxinos and Watson (Academic Press, 1998).

[3] = solutions saturated with gas at 15 vol % to 75 vol %, remainder 25 vol % oxygen completed with nitrogen, vs air control
[4] = gas at 50 vol %, 37° C., 1 h 30 min

Sequence of human recombinant t-PA (P00750 36-562): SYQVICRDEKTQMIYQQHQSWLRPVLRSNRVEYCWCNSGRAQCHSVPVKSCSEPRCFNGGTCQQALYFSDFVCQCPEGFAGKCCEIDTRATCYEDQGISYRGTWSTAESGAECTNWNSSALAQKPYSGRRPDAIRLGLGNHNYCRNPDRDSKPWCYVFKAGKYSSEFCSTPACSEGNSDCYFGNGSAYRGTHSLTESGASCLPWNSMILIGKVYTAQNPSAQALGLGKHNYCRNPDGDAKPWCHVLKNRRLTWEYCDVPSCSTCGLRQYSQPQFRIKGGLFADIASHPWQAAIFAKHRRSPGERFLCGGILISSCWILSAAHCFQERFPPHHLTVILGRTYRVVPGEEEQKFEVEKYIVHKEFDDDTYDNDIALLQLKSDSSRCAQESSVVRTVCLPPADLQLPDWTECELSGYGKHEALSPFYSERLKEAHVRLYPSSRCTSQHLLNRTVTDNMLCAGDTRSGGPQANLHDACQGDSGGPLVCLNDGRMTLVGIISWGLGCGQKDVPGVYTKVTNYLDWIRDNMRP

## O=O [Oxygen, oxygen]
Human recombinant t-PA; oxygen at 100 vol %
  effect on the catalytic activity of t-PA: increases
t-PA-induced clot lysis; oxygen at 100 vol %
  effect on in vitro thrombolytic action of t-PA: facilitates
[1]; oxygen at 100 vol %
  effect on in vivo thrombolytic action of t-PA: facilitates

## [Ar] [argon]
Human recombinant t-PA; [3]
  effect on the catalytic activity of t-PA: reduced
t-PA-induced clot lysis; gas at 30 vol %, 37° C., 1 h 30 min
  effect on t-PA-induced clot lysis: reduce

## [He] [helium]
Human recombinant t-PA; [3]
  effect on the catalytic activity of t-PA: reduced
t-PA-induced clot lysis; gas at 75 vol %, 37° C., 1 h 30 min
  effect on t-PA-induced clot lysis: reduce

## [N-]=[N+]=O [nitrous oxide]
Human recombinant t-PA; [3]
  effect on the catalytic activity of t-PA: reduced
t-PA-induced clot lysis; [4]
  effect on t-PA-induced clot lysis: reduce
[2]; nitrous oxide 50 vol % for 3 h, 1 h after 50 nmol NMDA + t-PA intracerebral, infarction volume at 48 h
  reduction of neuronal death induced by co-administration of t-PA and NMDA: 45%
[2]; nitrous oxide 50 vol % for 3 h, 1 h after 50 nmol NMDA intracerebral, infarction volume at 48 h
  reduction of neuronal death produced by NMDA: 22%
[2]; nitrous oxide 50 vol %, difference 45%−22%
  reduction of the proteolytic action of t-PA responsible for the enhancement of neuronal death: approximately 23%

## [Xe] [xenon]
Human recombinant t-PA; [3]
  effect on the catalytic activity of t-PA: reduced
t-PA-induced clot lysis; [4]
  effect on t-PA-induced clot lysis: reduce
[1]; xenon at 75 vol % from 5 min before bolus and during t-PA perfusion (0.9 mg/kg i.v.)
  reperfusion rate versus control rats treated with t-PA and medical air: lower reperfusion rate

## t-PA: human recombinant tissue-type plasminogen activator, a thrombolytic serine protease
t-PA-induced clot lysis; t-PA 0.008 mg/mL in saline saturated with medical air (control), 37° C., 1 h 30 min
  percentage of clot lysis: around 23%
[1]; t-PA 0.9 mg/kg intravenously 45 min after occlusion, vs rats not treated with t-PA
  reperfusion: exhibit reperfusion
[2]; t-PA co-administered with 50 nmol NMDA intracerebrally
  effect on NMDA-induced neuronal death: increases

Reference: patent US8435569B2, “Pharmaceutical composition comprising at least one thrombolytic agent (A) and at least one gas (B) selected from the group consisting of nitrous oxide, argon, xenon, helium, neon” (NNOXE Pharmaceutiques Inc., priority 2007, dated 2013)
